Test results reported in patent publication US10993935B2, “Compositions and methods for treatment of lung infections” (priority 2018, dated 2021).

Assays:
P. aeruginosa = test: Uronic acid carbazole assay of alginate production; assay type: cell-based, Pseudomonas aeruginosa
Procedure: Data shown represent means of 5 replicates per group ±standard error (SE). Two-way ANOVA analysis was used with statistical significance set as a P value of <0.01 (****, P<0.0001; **, P<0.001; *, P<0.01).
Uronic Acid Carbazole Assay. Alginate production was measured via carbazole assay. Laboratory and clinical isolate strains were grown in PIB from a single colony isolation. The strains were then plated on 150 mm agar plates containing no antibiotic; RFX at concentrations of 10 μM (MIC50), 6 μM (MIC30), 2 μM (MIC10), and 0.2 μM (MIC1); or TOB at concentrations of 2 μM (MIC50), 1.2 μM (MIC30), 0.4 μM (MIC10), and 0.04 μM (MIC1) and incubated at 37° C. for 48 h. Sterile PBS (30 mL) was added to the plates and the cells plus their mucoid film were collected into 50 mL conical tubes. A 1 mL sample was taken to measure growth via OD at 600 nm. A 700 μL sample was then added to tubes containing 6 mL of a sulfuric acid-borate solution. A 200 μL aliquot of 0.1% carbazole was then added to the tubes and incubated for 30 m at 55° C. The alginate was then measured via OD at 530 nm and plotted against a standard curve made with D-mannuronic acid (Sigma-Aldrich). The reported values represent an average from three independent alginate collections with standard deviation.
To investigate the extent of this inhibition, PAO1, PAO581, and two mucoid P. aeruginosa CF isolates (CF001 and CF010) were grew on PIA plates containing sub-MIC concentrations of either TOB or RFX and measured alginate production with the carbazole assay. […] The MIC normalization was used to compare the effect of the two drugs on inhibition of alginate production, as this allowed the measurement of alginate made by the same number of bacterial cells.

P. aeruginosa PAO1 = test: Murine pneumonia model, single-dose treatment, survival; assay type: in vivo, DBA/2 mice; settings: 12 mice per group
Procedure: Kaplan-Meier curves showing percent survival of DBA/2 mice with P. aeruginosa PAO1 infection after treatment with RFX or TOB at 0 h post-infection (FIG. 5A), 6 h post-infection (FIG. 5B), and 12 h post-infection (FIG. 5C). Data shown represent means of 12 mice per group. The Mantel-Cox test was used with significance set at a P value of <0.01 and showing standard error (SE) bars.
Murine Pneumonia Model Treatment. TOB or RFX were used to treat P. aeruginosa respiratory infection in a DBA/2 mouse model established previously. Lung infection was induced by a single exposure to a total of 84 male DBA/2 mice of 8 week old (Charles River Laboratories) to P. aeruginosa PAO1 aerosols, which was prepared as previously reported. Immediately after infection, the mice were separated into seven groups (n=12 per group): 1) control with no treatment, 2) treatment with 300 mg TOB immediately after infection, 3) treatment with 300 mg RFX immediately after infection, 4) treatment with 300 mg TOB 6 h after infection, 5) treatment with 300 mg RFX 6 h after infection, 6) treatment with 300 mg TOB 12 h after infection, or 7) treatment with 300 mg RFX 12 h after infection. Each experimental group was treated with TOB or RFX with a control group treated with PBS following the nebulization protocol as described above. The mice were monitored for survival at 12 hour intervals for 72 hours and then at 24 hour intervals for 6 weeks.
After establishing the dosing of TOB or RFX to efficiently reach the lungs, the efficacy of both drugs against P. aeruginosa lung infections was compared using an established mouse model. DBA/2 (n=84) male mice were first infected with aerosolized P. aeruginosa PAO1 in a whole-body exposure chamber as previously described. The mice were then separated into four groups. One group was left untreated to determine the rate of mortality (control). The remaining three groups were treated with RFX or TOB using a pressure-based nebulizer and whole-body exposure chamber at a concentration of 300 mg at 0 h, 6 h, or 12 h post infection. All control mice died within 5 days (FIGS. 5A-5C), consistent with what was previously reported. […] In the 12 h treatment group, 83% of mice treated with RFX survived, while only 50% of mice treated with TOB survived (FIG. 5C).

P. aeruginosa strains = test: MIC and synergy testing (checkerboard/isobologram) of RFX and TOB; assay type: cell-based, Pseudomonas aeruginosa; settings: for MIC RFX: RFX alone; for MIC RFX in Combination: in combination with TOB; for MIC TOB: TOB alone; for MIC TOB in Combination: in combination with RFX
Procedure: Minimum Inhibitory Concentration Testing. MIC testing was performed as previously described. Briefly, overnight culture of bacteria was diluted in 1:100 of a 0.5 McFarland standard as inoculum. The same number of cells was grown in LB broth containing serial, two-fold dilutions of rifaximin (RFX) or tobramycin (TOB). Growth was measured via optical density (OD) at 600 nm after 24 h incubation at 37° C. Concentrations of antibiotic required for inhibition of 50% and 90% of strains were determined.
Synergy Testing. Synergistic potential of RFX and TOB was performed by isobologram (checkerboard) analysis in 96-well plate format Briefly, PIB containing serial dilutions of each drug were plated in 64 wells of a 96-well plate with one drug vertically plated and the other horizontally plated. Bacterial cells of P. aeruginosa were grown 4 to 6 hours to an early log phase and then added to the wells of the plate. Growth in the wells was measured via OD at 600 nm after 24 h incubation at 37° C. The MIC and Fractional Inhibition Concentration (FIC) were calculated to determine synergism, antagonism or additivity between the tested strains of P. aeruginosa: PAO1, PAO581, PAO581 isogenic mutant, CF001, and CF010. The summative ΣFTC was calculated from the FICs and interpreted according to the standard index values: synergy ≤0.5; indifferent 0.5< to ≤4; antagonism >4. […]

[1] = non-mucoid strain PAO1, sub-MIC concentrations (MIC1-MIC50) on PIA, TOB versus RFX
[2] = 300 mg nebulized at 0 h after infection
[3] = 300 mg nebulized at 6 h post infection
[4] = 300 mg nebulized at 12 h post infection

## CO[C@H]1/C=C/O[C@@]2(C)Oc3c(C)c(O)c4c(O)c(c5c(nc6cc(C)ccn65)c4c3C2=O)NC(=O)/C(C)=C\C=C\[C@H](C)[C@H](O)[C@@H](C)[C@@H](O)[C@@H](C)[C@H](OC(C)=O)[C@@H]1C [RFX, rifaximin]
P. aeruginosa; mucoid CF isolates CF001 and CF010, compared to TOB
  alginate production: significant decrease in alginate production
P. aeruginosa; mucoid strain PAO581, all concentrations tested, compared to TOB
  alginate production: significantly decreased alginate production
P. aeruginosa; [1]
  alginate production: no significant difference in alginate production
P. aeruginosa PAO1; [2]
  survival: 100%
P. aeruginosa PAO1; [3]
  survival: 92%
P. aeruginosa PAO1; [4]
  survival: 83%
P. aeruginosa strains; strain CF001, M
  FIC RFX: 0.25
  MIC RFX: 16
  MIC RFX in Combination: 4
P. aeruginosa strains; strain CF003, NM
  MIC RFX: 4
P. aeruginosa strains; strain CF010, M
  FIC RFX: 0.25
  MIC RFX: 8
  MIC RFX in Combination: 2
P. aeruginosa strains; strain PAO1, NM
  FIC RFX: 0.25
  MIC RFX in Combination: 4
P. aeruginosa strains; strain PAO1, NM (non-mucoid)
  MIC RFX: 16
P. aeruginosa strains; strain PAO581, M
  FIC RFX: 0.25
  MIC RFX in Combination: 4
P. aeruginosa strains; strain PAO581, M (mucoid)
  MIC RFX: 16
P. aeruginosa strains; strain PAO581 NM revertant
  FIC RFX: 0.25
  MIC RFX: 16
  MIC RFX in Combination: 4

## NC[C@H]1O[C@H](O[C@H]2[C@H](O)[C@@H](O[C@H]3O[C@H](CO)[C@@H](O)[C@H](N)[C@H]3O)[C@H](N)C[C@@H]2N)[C@H](N)C[C@@H]1O [TOB, tobramycin]
P. aeruginosa; [1]
  alginate production: no significant difference in alginate production
P. aeruginosa PAO1; [2]
  survival: 92%
P. aeruginosa PAO1; [3]
  survival: 58%
P. aeruginosa PAO1; [4]
  survival: 50%
P. aeruginosa strains; strain CF001, M
  FIC TOB: 0.25
  MIC TOB: 2
  MIC TOB in Combination: 0.5
P. aeruginosa strains; strain CF003, NM
  MIC TOB: 2
  MIC TOB in Combination: 0.25
P. aeruginosa strains; strain CF010, M
  FIC TOB: 0.25
  MIC TOB: 2
  MIC TOB in Combination: 0.5
P. aeruginosa strains; strain PAO1, NM
  FIC TOB: 0.125
  MIC TOB: 2
  MIC TOB in Combination: 0.25
P. aeruginosa strains; strain PAO581, M
  FIC TOB: 0.25
  MIC TOB: 2
  MIC TOB in Combination: 0.5
P. aeruginosa strains; strain PAO581 NM revertant
  FIC TOB: 0.25
  MIC TOB: 2
  MIC TOB in Combination: 0.5
